One compound from US8022219B2, “2-hydroxymethy1-3,4,5-trihydroxy-1-(4-pentyloxybenzyl) piperidine as glucosylceramide synthase (Gcs) inhibitor” (Actelion Pharmaceuticals Ltd., priority 2003, dated 2011) can be followed below.

Assay [1] has as its target T1, human recombinant GCS expressed in insect cells (Homo sapiens, UniProt Q16739).
T1 construct: made in house; host or cells: insect cells
T1 sequence (Q16739 1-394): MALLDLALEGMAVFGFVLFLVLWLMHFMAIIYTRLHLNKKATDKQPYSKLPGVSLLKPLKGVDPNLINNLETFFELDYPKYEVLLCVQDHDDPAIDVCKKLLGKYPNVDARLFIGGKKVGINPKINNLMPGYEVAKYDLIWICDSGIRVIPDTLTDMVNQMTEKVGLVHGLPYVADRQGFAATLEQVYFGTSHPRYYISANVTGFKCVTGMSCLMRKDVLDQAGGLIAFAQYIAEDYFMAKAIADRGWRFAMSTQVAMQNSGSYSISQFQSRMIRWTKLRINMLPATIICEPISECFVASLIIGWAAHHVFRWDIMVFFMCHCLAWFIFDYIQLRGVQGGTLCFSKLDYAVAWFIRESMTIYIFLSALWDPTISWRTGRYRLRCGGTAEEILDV
Briefly: Inhibition of GCS. In kind it is biochemical. The settings on record: read-out: Inhibition of glucosylceramide synthase (IC50 μM). As to the method:
The assay for inhibition of GCS was performed essentially as described in Platt et al., J. Biol. Chem., 1994, 269, 27108, the enzyme source being human recombinant GCS expressed in insect cells.

In assay [2] the target is T2, non-lysosomal-β-glucocerebrosidase (Homo sapiens, UniProt Q9HCG7).
T2 construct: whole cell extracts of MCF7 (a human breast carcinoma cell line) was used as the source of the enzyme; endogenous in cells; host or cells: MCF7 whole cell extract
T2 sequence (Q9HCG7 1-927): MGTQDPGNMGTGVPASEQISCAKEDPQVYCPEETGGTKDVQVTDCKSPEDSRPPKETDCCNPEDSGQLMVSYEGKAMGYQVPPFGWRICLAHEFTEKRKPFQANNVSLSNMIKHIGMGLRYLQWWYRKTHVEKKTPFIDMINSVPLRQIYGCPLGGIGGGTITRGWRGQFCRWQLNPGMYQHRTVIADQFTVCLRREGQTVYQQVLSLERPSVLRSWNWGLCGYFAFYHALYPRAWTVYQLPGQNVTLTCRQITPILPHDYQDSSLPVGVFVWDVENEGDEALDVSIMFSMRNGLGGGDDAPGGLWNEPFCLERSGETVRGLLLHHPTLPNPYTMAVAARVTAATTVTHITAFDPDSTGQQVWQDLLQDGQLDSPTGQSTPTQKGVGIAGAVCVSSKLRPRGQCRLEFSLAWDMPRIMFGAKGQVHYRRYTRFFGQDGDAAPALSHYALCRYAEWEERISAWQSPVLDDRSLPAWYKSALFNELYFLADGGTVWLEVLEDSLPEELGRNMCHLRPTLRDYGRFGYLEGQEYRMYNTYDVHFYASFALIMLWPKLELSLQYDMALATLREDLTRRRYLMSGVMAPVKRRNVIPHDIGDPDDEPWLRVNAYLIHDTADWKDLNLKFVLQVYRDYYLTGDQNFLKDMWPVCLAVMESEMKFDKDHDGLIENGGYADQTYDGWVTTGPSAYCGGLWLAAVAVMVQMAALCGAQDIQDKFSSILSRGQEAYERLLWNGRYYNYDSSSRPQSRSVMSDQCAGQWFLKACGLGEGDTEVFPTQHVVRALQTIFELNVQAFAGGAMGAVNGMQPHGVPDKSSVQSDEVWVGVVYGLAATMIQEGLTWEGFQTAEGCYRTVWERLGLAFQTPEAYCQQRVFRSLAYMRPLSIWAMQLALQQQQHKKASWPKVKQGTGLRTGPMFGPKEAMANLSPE
Briefly: Inhibition of non-lysosomal-β-glucocerebrosidase. In kind it is biochemical. The settings on record: whole cell extracts of MCF7 as enzyme source; 5 mM 4-MU β-glucoside; 0.2M citrate/phosphate pH 5.8. The procedure: Inhibition of Non-Lysosomal-β-Glucocerebrosidase
The assay for inhibition of non-lysosomal-β-glucocerebrosidase was essentially carried out as described in Overkleeft, H. S. et al., J. Biol. Chem., 1998, 273, 26522-26527, with the following differences: whole cell extracts of MCF7 (a human breast carcinoma cell line) was used as the source of the enzyme instead of splenic membrane suspensions; 5 mM instead of 3 mM, 4-MU β-glucoside was used as substrate and 0.2M citrate/phosphate (pH 5.8) was used instead of McIlvaine buffer.

Each structure is given as a SMILES string.

In general, IC50 refers to the concentration that gives 50% inhibition. `CCCCCOc1ccc(CN2C[C@H](O)[C@@H](O)[C@@H](O)[C@@H]2CO)cc1` [Example 1, 3,4,5-Piperidinetriol, 2-(hydroxymethyl)-1-[(4-(pentyloxy)phenyl)methyl]-, (2S,3S,4R,5S)]: the IC50 in assay [1] came to 4.8 µM; in assay [2] it was 2.5 µM.
